This is an account of results in patent US20060160095A1, “Survivin” (EiRx Therapeutics Limited, priority 2002, published 2006).

One test has as its system Survivin mRNA. Description: Real-time PCR quantification of survivin mRNA in neutrophils. Conditions: cytokine added in vitro; A549 standard = 100%. The test is classed as cell-based, human. How it is done:
(§1) Neutrophils are cultured at 1×10^6 per ml in complete culture medium. GM-CSF (50 ng/ml; kind gift of T. Hartung, University of Konstanz, Konstanz, Germany) or G-CSF (25 ng/ml; PeproTech, BioConcept, Allschwil, Switzerland) are added. The duration of GM-CSF or G-CSF stimulation is indicated in each experiment.
Neutrophils (1×10^7) are washed with PBS and the RNA is isolated according to the RNeasy protocol (Qiagen AG, Basel, Switzerland), which includes DNase digestion. RNA is reverse transcribed with the first strand cDNA synthesis kit (Amersham Pharmacia Biotech) by using random hexanucleotides according to the manufacturer's instructions. Real-time monitoring of PCR amplification of survivin cDNA is performed with a 1/100 dilution of neutrophil cDNA as previously described (Olie et al. (2000) Cancer Research 60, 2805-2809). Relative quantification of survivin expression is performed as described (Olie et al. (2000) Cancer Research 60, 2805-2809) utilizing rRNA as an internal standard.
(§2) The 20-mer first generation antisense oligonucleotide 4003 targeting the survivin mRNA has been described above. The second generation 2′-O-methoxy-ethoxy (2′-MOE) gapmer version of 4003 (as) and its 3-base mismatch sequence control (ms) are synthesized using an Applied Biosystems 394B automated DNA synthesizer as described (De Mesaeker et al. (1995) Acc. Chem. Res. 28, 366-374). Sequences are as follows: antisense survivin, cscscsasgsCsCsTsTsCsCsAsGsCsTscscststsg; mismatch survivin, cscstsasgsCsCsTsTsCsCsAsGsGsTscscstsasg. Small letters refer to 2′-O-(2-methoxy)-ethyl-modified nucleotides, capital letters to DNA, and “s” refers to phosphorothioate linkages. Cells isolated and cultured as described above are treated with survivin antisense oligonucleotides (as) or survivin mismatch control oligonucleotides (ms) at the indicated concentrations. In the experiments in which GM-CSF (50 ng/ml; kind gift of T. Hartung, University of Konstanz, Konstanz, Germany) or G-CSF (25 ng/ml; PeproTech, BioConcept, Allschwil, Switzerland) are added, the oligonucleotides are given 2 h before addition of cytokines.
For orientation: Real-time PCR tracks product formation cycle by cycle.

Another test deals with Neutrophils. Description: Measurement of apoptosis by DNA fragmentation (propidium iodide flow cytometry). The test is classed as cell-based, human. Conditions: neutrophils cultured overnight in the presence of GM-CSF. The procedure: Neutrophils are isolated from the blood as described in Example 1 and resuspended at a concentration of 2×10^6/ml. Five hundred microlitres are pipetted into wells of a 24 well plate and incubated in the presence or absence of survival factors.
After this incubation, the neutrophils are carefully resuspended by gentle agitation and the total contents of the well are placed into an eppendorf and centrifuged @2800 rpm for 2 min @ RT in a minifuge. The cell pellet is carefully resuspended in 300 μl of ice cold hypotonic fluorochrome solution (50 μg/ml Propidium Iodide, 0.1% Sodium Citrate and 0.1% Triton X-100) and placed in a fridge for 24 h @ 4° C.
Prepared samples are analysed with a FacsCalibre flow cytometer (Becton Dickinson) using double discrimination to ensure single cell suspension with Log Forward and Side Scatter Parameter acquisition.
(Flow cytometry measures light scatter and fluorescence of single cells or particles in a stream.)

The subject of test [1] is Primary human neutrophils. Briefly: MTT survival assay of neutrophils cultured with GM-CSF, with or without gliotoxin. The format is cell-based. To be noted: various amounts of GM-CSF, 18 h culture. How it is done: Primary human neutrophils are isolated and purified from peripheral blood of normal healthy individuals. Neutrophils are resuspended in serum containing culture medium together with various amounts of GM-CSF at a density of 2×10^6/ml, with 100 μl plated into a 96 well plate and cultured for 18 h at 37° C. After this time 10 μl of MTT (5 mg/ml) is added to the cultures and incubated for a further 4 h at 37° C. before solubilisation of the purple coloured formazan with acidic isopropanol. Optical densities are read at 570 nm using a plate reader.
Primary human neutrophils are isolated and purified from peripheral blood of normal healthy individuals. Neutrophils are resuspended in serum containing culture medium containing 5 U/ml of GM-CSF at a concentration of 2×10^6/ml. […] After the indicated time, 10 μl of MTT (5 mg/ml) are added to the cultures and incubated for a further 4 h at 37° C. before solubilisation of the purple coloured formazan with acidic isopropanol. Optical densities are read at 570 nm using a plate reader.
For orientation: Formazan colour is commonly taken as a measure of viable cells.

The test system of the next test is caspase-3. Description: Caspase-3 immunoblotting in neutrophils. The test is classed as cell-based, human. To be noted: neutrophils cultured with GM-CSF or G-CSF for 10 h. How it is done: Immunoblotting is carried out as described above using supernatants of cell lysates. Caspase-3 is detected using a polyclonal anti-caspase-3 antibody (1/1000; Becton Dickinson Pharmingen, Heidelberg, Germany))
Neutrophils (2.5×10^6) are cultured in the presence or absence of GM-CSF (50 ng/ml), G-CSF (25 ng/ml), 2-MOE modified antisense or mismatch survivin oligonucleotides at the indicated concentrations for 10 h, washed with cold PBS and subsequently lysed in 50 μl cell lysis buffer (50 mM HEPES, pH 7.4/0.1% Chaps/5 mM DTT/0.1 mM EDTA) using a Teflon glass homogenizer (VWR International, Ismaning, Germany) on ice for 10 min. After a 10-min centrifugation step at 10,000×g at 4° C., an aliquot of the supernatant is saved for caspase-3 immunoblotting and caspase 3-like activity is measured in 10 μl supernatants as enzymatic-conversion of the colorimetric substrate Ac-DEVD-pNA at 405 nm according to the manufacturer's instructions (QuantiZyme caspase 3 cellular activity assay kit, Biomol, Plymouth Meeting, Pa., USA).

A further test has as its system survivin. Description: Immunoblotting of survivin protein in neutrophils. The test is classed as cell-based, human. Conditions: cultured for 12 h in the presence of cytokine. The procedure:
as §1
Neutrophils (5×10^6) are washed with PBS, lysed with RIPA-buffer (0.5% sodium deoxycholate, 1% Nonidet P-40, 0.1% SDS in PBS) supplemented with a protease inhibitor-cocktail (Sigma) with frequent vortexing on ice for 40 min, including two freeze/thaw cycles using a methanol/dry ice bath. After a 10-min centrifugation to remove insoluble particles, equal amounts of the cell lysates are loaded on NuPage-Gels (Invitrogen Corp., Groningen, Netherlands). Separated proteins are electrotransferred onto polyvinylidene difluoride (PVDF) membranes (Immobilion-P, Millipore, Bedford, Mass.). The filters are incubated overnight with a polyclonal anti-survivin antibody (1/1000; R&D Systems, Abingdon, UK) at 4° C. in TBS/0.1% Tween-20/3% non-fat dry milk. Purified full-length recombinant human survivin (2 μl) is provided by R&D Systems as positive control for anti-survivin immunoblotting. For loading controls, stripped filters are incubated with a monoclonal anti-β-actin antibody (1/10,000; Sigma). Filters are washed in TBS/0.1% Tween-20 for 30 min and incubated with the appropriate HRP-conjugated secondary antibody (Amersham Pharmacia Biotech, Dübendorf, Switzerland) in TBS/0.1% Tween-20/5% non-fat dry milk for 1 h. Filters are developed by an ECL-technique (ECL-Kit, Amersham Pharmacia Biotech) according to the manufacturer's instructions.
as §2

With “Granulocyte macrophage colony-stimulating factor [GM-CSF]”, the “survivin mRNA in normal control neutrophils after cytokine addition” value in the test with Survivin mRNA is on record as “increase in survivin mRNA”. The “apoptosis by DNA fragmentation (G0/G1 and sub-G1 peaks)” value in the test with Neutrophils is “few cells in the sub-G1 peak”. In addition, the “neutrophil survival (MTT, optical density at 570 nm)” value in test [1] was “direct correlation between survival and concentrations of GM-CSF”. In the test on caspase-3, the “caspase-3 proform and 17-kDa fragment levels with cytokine” value was “maintain greater amounts of the caspase-3 proform”. The “Levels of survivin (immunoblot) in normal control neutrophils” value in the test with survivin is on record as “increased”.
